Assay results published in BigSolDB 2.1.

NC(=O)c1c(F)c(F)c(F)c(F)c1F
in water
Conditions | solubility (mole fraction)
291.8 K | 0.00018
297.5 K | 0.00026
303.3 K | 0.00034
310.3 K | 0.0006

O=C(Nc1c(F)c(F)c(F)c(F)c1F)C(=O)Nc1c(F)c(F)c(F)c(F)c1F
Conditions | solubility (mole fraction)
in 2-butanone, 284.2 K | 0.00793
in 2-butanone, 287.1 K | 0.00854
in 2-butanone, 289.4 K | 0.00897
in 2-butanone, 293.4 K | 0.00984
in 2-butanone, 303.3 K | 0.0126
in 2-butanone, 314.7 K | 0.0168
in 2-butanone, 323.9 K | 0.0209
in 2-butanone, 327.2 K | 0.023
in 2-butanone, 331.1 K | 0.025
in 2-butanone, 333.4 K | 0.0271
in 2-butanone, 336.9 K | 0.029
in ethyl acetate, 281.1 K | 0.00822
in ethyl acetate, 285.6 K | 0.00934
in ethyl acetate, 291.9 K | 0.0105
in ethyl acetate, 293.5 K | 0.0116
in ethyl acetate, 303.7 K | 0.0138
in ethyl acetate, 310.9 K | 0.017
in ethyl acetate, 321.4 K | 0.0206
in ethyl acetate, 325.1 K | 0.0229
in ethyl acetate, 326.7 K | 0.0251
in ethyl acetate, 332.2 K | 0.0274
in ethyl acetate, 334.9 K | 0.0295

O=c1[nH]c(=O)n([C@H]2C[C@H](O)[C@@H](CO)O2)cc1I
in water
Conditions | solubility (mole fraction)
302.2 K | 0.00013
312.6 K | 0.00021
317.8 K | 0.00026
321.9 K | 0.00039
323 K | 0.00027
326.2 K | 0.00041
332 K | 0.00051
336 K | 0.00047
343.1 K | 0.00076
348.6 K | 0.00089
349.8 K | 0.00102
